Entries after “also recorded” stand apart in the source; their conditions may differ. Read-outs that look alike come from different tables or passages of the source.
How the values were obtained:
[1] = Initial pharmacokinetics and biodistribution in CD1 mice; format: in vivo, mouse; conditions: i.v., YM-01 20 mg/kg saline, YM-08 10 mg/kg 10% DMSO/saline
Method: (A) Initial pharmacokinetics and biodistribution of YM-01 and YM-08. Compounds were suspended in buffered saline (YM-01) or 10% DMSO/saline (YM-08) and injected at 20 and 10 mg/kg, respectively. YM-08 was not soluble in saline or 10% DMSO/saline at 20 mg/kg. The levels of YM-08 in the brain at 1 hr after injection could not be accurately determined because its value was outside the calibration curve. […] Results are average from data acquired from three female mice. (C) YM-08 maintains a B/P ratio of nearly 0.25 for 18 hrs.
The initial pharmacokinetics (PK) of YM-01 and YM-08 were tested in CD1 mice. […] After a single 6.6 mg/kg dose delivered i.v., the peak brain concentration of YM-08 was 4 μg/g (FIG. 7B) and the ratio in the brain:plasma (B/P) ratio was approximately 0.25 for 18 hrs (FIG. 7C). […] It is not yet clear how much tau levels need to be reduced to achieve therapeutic effects in disease models, but the area-under-the-curve (AUCinf) for YM-08 in the brain was 0.26 μg·hr/g and the AUCinf in plasma was 13.6 μg·hr/mL.

[2] = molecular target: T1, human Hsc70 (HSPA8) (Homo sapiens, UniProt P11142); assay: ELISA competitive binding assay (biotinylated MKT-077 displacement)
T1 construct: made in house
Method: Binding of MKT-077 analogs to immobilized Hsp70 was evaluated using a competitive ELISA. In this established assay, a biotinylated version of MKT-077 is bound to immobilized human Hsc70 (HSPA8) and potential competitors are tested for their ability to block the interaction.
A sample of Hsc70 (50 μL; 0.06 mg/mL) was immobilized in clear flat-bottom 96-well plate in MES buffer (50 mM 2-(N-morpholino)ethanesulfonic acid, pH 5.2) at 37° C. overnight. After discarding the excess protein solution, each well was washed three times with 150 μL TBS-T buffer (25 mM Tris, 140 mM NaCl, 2.7 mM KCl, 0.01% Tween-20, pH 7.4). Then, 1 μL of compound (1% DMSO) was diluted into 24 μL of binding buffer (100 mM Tris, 20 mM KCl, 6 mM MgCl2, 0.01% Triton-X100) and incubated at room temperature for 30 min. Biotin labeled MKT-077 (final concentration 1 μM; 25 μL) was subsequently added into each well and the mixture was incubated at room temperature for another 3 hrs. The wells were washed with 150 μL TBS-T buffer three times prior to blocking with 100 μL 3% bovine serum albumin (BSA) in TBS-T buffer for 5 min at room temperature. After the removal of the BSA solution, 50 μL of HRP-streptavidin (Pierce Biotechnology, 1:50000 TBS-T dilution) solution was added and the plates were incubated at room temperature for 1 hr. The HRP-streptavidin solution was removed and wells were washed three times with 150 μL TBS-T. […] substrate (Cell Signaling Technology 100 μL) was added into each well and incubated at room temperature until a visible blue color was shown in wells (about 20 min). 1 M HCl stop solution was then added into each well to yield a yellow solution and the absorbance at 450 nm was recorded on SpectraMax M5 (Molecular Devices).

[3] = Liver microsome stability; format: in vitro ADME; conditions: human liver microsomes
[4] = molecular target: prokaryotic Hsp70 (DnaK) binding to denatured luciferase (Escherichia coli, UniProt P0A6Y8); assay: Luciferase binding assay; format: biochemical; conditions: 50 μM
Method: Next, the effect of chaperone functions by binding of YM-08 to Hsp70 was investigated. […] This profile is shared with other allosteric Hsp70 inhibitors. As another test of chaperone function, the effects of the compounds on the binding of Hsp70 to a misfolded protein were measured. In previous work, MKT-077 stabilized the interaction between prokaryotic Hsp70 (DnaK) and denatured luciferase. Briefly, this assay involves immobilizing unfolded luciferase in microtiter plates and measuring binding to DnaK. […] To explore whether YM-08 might also enhance binding of Hsp70 to a more physiologically relevant substrate, binding of tau to immobilized human Hsc70 was measured.
Binding of prokaryotic Hsp70 (DnaK) to denatured luciferase was measured as previously described, in e.g., Miyata, et al., J. Biomol. Screen, 15:1211-1219 (2010). Briefly, firefly luciferase (0.2 mg/mL) was proteolyzed with trypsin and immobilized in 96-well microtiter plates. After washing, the binding of luciferase to DnaK (500 nM) was measured using an anti-DnaK antibody and HRP secondary antibody. A similar strategy was used to monitor binding of human Hsc70 to tau, as previously described in Thompson, et al., ACS Chem. Biol., 7:1677-1686 (2012).

[5] = system: MCF-7, MCF-10A and MB-MDA-231 cells; assay: MTT assays, three cell lines; format: cell-based; conditions: range over MCF-7, MCF-10A and MB-MDA-231 cells
Method: YM-08 was tested whether it might retain the anti-cancer activity of MKT-077.

[6] = Phase I, anti-cancer agent; cited from earlier work
[7] = in vivo; cited from earlier work
[8] = system: human 4R0N tau in HeLaC3 cells; assay: Tau levels in HeLaC3 cells by Western blot; format: cell-based
Method: To determine whether YM-08 might also accelerated tau degradation, HeLaC3 cells, which stably over-express human 4R0N tau, were treated with compound. After 24 hours, the levels of phosphorylated (p396/404) tau and total tau were measured by Western blot. […] This cellular activity is not as dramatic as that of MKT-077, which reduced tau levels by >80% at 30 μM (FIG. 4D); however, reducing tau by only about 50% is predicted to provide benefits in some AD models.

[9] = system: MDA-MB-231 cells; assay: Combination cell viability by MTT, MDA-MB-231; format: cell-based; conditions: for combination index CI50 / combination index CI75 / combination index CI90 / combination index CI95: 24 hrs
Method: To further test if an Hsp70 inhibitor would have synergistic activity with inhibitors of Hsp90 and the proteasome, MDA-MB-231 cells were treated for 24 hrs with combinations of an HSP70 inhibitor and an HSP90 inhibitor and measured cell viability by MTT assays. […] JG98 was also synergistic at ratios of JG98:17DMAG of 1:1 and at ratios of JG98:bortezomib at 100:1.

[10] = system: MCF7 cells; assay: Combination therapy Hsp70 and Hsp90, MCF7 growth; format: cell-based; conditions: with 1 nM rapamycin or 1 nM 17-AAG
Method: The cells were then treated with the Hsp70 inhibitor JG-83 or JG-84 alone or in combination with the Hsp90 inhibitor 1 nM rapamycin or 1 nM 17-AAG.

[11] = system: MCF-7; assay: Cancer activity screen (MTT cell survival), MCF-7; format: cell-based; conditions: especially in MCF7 cells
[12] = read-out: IC50, inhibition of biotinylated MKT-077 binding to immobilized Hsc70, competitive ELISA, biotin labeled MKT-077 1 μM
[13] = competitive ELISA, biotin labeled MKT-077 1 μM

T1 sequence (P11142 whole entry): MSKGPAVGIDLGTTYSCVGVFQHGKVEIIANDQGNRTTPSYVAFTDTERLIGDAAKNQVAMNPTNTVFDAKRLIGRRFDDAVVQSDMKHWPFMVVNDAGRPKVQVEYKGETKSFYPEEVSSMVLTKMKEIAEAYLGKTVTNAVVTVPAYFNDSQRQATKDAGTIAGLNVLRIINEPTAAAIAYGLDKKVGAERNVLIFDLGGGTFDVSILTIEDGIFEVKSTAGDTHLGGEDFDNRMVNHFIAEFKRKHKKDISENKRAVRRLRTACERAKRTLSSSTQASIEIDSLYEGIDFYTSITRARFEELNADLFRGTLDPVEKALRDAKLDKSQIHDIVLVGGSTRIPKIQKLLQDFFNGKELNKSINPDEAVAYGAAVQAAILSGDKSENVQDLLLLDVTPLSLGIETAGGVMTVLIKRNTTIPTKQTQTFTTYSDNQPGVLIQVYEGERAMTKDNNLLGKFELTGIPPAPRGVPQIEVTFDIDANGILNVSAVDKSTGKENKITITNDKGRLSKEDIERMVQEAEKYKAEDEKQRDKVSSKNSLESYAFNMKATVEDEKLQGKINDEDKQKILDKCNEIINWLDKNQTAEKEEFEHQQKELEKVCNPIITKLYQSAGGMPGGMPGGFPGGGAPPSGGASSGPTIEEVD
Sequence of prokaryotic Hsp70 (DnaK) binding to denatured luciferase (P0A6Y8 whole entry): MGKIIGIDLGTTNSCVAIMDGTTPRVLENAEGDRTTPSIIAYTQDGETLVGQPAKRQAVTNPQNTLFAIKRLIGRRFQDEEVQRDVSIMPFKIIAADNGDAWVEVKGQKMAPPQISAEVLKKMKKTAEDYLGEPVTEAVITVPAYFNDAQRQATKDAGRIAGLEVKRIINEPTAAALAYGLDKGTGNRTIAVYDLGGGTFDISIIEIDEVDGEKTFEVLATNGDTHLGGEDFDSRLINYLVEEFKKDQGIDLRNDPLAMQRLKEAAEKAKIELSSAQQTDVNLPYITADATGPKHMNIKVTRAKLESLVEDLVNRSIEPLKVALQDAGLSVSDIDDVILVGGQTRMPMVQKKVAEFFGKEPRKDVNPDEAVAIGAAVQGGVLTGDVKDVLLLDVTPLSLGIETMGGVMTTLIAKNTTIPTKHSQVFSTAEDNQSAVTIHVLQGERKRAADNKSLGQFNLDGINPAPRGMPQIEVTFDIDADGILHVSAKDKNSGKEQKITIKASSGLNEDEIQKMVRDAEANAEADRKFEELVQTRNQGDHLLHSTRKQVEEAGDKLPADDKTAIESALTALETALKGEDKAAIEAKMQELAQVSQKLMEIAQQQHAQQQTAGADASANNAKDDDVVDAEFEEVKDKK

For CCn1c(=O)/c(=C2\Sc3ccccc3N2C)s/c1=C\c1cccc[n+]1C [YM-01, 2-((Z)-((E)-3-ethyl-5-(3-methylbenzo[d]thiazol-2(3H)-ylidene)-4-oxothiazolidin-2-ylidene)methyl)-1-methylpyridin-1-ium], the kidney distribution ([1]; 0.16 and 1 hrs) was “prevalent in the kidney”, the brain penetration ([1]; 0.16 hrs) was “lacked detectable brain penetration” and the IC50 [2, 12] was 3.2 ± 0.23 µM. For the same compound, the t1/2 [3] was “approximately 4 minutes” and the “enhancement of DnaK binding to denatured luciferase” value [4] was “about 30%”.
For CCn1c(=O)/c(=C2\Sc3ccccc3N2C)s/c1=C\c1cccc[n+]1CC [MKT-077, 1-ethyl-2-((Z)-((E)-3-ethyl-5-(3-methylbenzo[d]thiazol-2(3H)-ylidene)-4-oxothiazolidin-2-ylidene)methyl)pyridin-1-ium], the EC50 [5] is given as 1.4 to 3 µM, the clinical toxicity [6] is given as “nephrotoxicity in a subset of patients” and the BBB crossing [7] is given as “does not cross the BBB”. The kidney accumulation [7] was “dramatic accumulation of MKT-077 in the kidney”, the IC50 [2] was 6.4 ± 0.23 µM and the “enhancement of DnaK binding to denatured luciferase” value [4] was “about 30%”. For the same compound, the “reduction of tau levels” value ([8]; 30 μM) was greater than 80%.
In the case of “(Z)-2-((3-ethyl-4-oxothiazolidin-2-ylidene)methyl)-1-methylpyridin-1-ium [YM-04]”, the “affinity fold worse than YM-07” value ([2]; ratio of ELISA IC50) is reported as “about 2 fold”, the IC50 [2, 12] is reported as roughly 15 µM and the “activity in luciferase binding assay” value [4] is reported as “reduced activity”.
For CCn1c(=O)/c(=C2\Sc3cc(Cl)ccc3N2C)s/c1=C\c1scc[n+]1Cc1ccccc1.[Cl-] [JG-98], the synergy ([9]; JG98:17DMAG 1:1) was “synergistic”, the “combination index CI50” value ([9]; JG98:17DMAG (10:1)) was 1.09 and the “combination index CI75” value ([9]; JG98:17DMAG (10:1)) was 0.35. For the same compound, the “combination index CI90” value ([9]; JG98:17DMAG (10:1)) was 0.27, the “combination index CI95” value ([9]; JG98:17DMAG (10:1)) was 0.2 and the synergy ([9]; JG98:bortezomib 100:1) was “synergistic”. The “combination index CI50” value ([9]; JG98:bortezomib (1:1)) was 0.05, the “combination index CI75” value ([9]; JG98:bortezomib (1:1)) was 0.05 and the “combination index CI90” value ([9]; JG98:bortezomib (1:1)) was less than 0.02. For the same compound, the “combination index CI95” value ([9]; JG98:bortezomib (1:1)) was less than 0.02.
For “(E)-3-ethyl-5-(3-methylbenzo[d]thiazol-2(3H)-ylidene)-2-(methylthio)-4-oxo-4,5-dihydrothiazol-3-ium [YM-03]”, the “activity in luciferase binding assay” value [4] was “reduced activity”.
For CCn1c(=O)/c(=C2\Sc3cccc(Cl)c3N2C)s/c1=C\c1scc[n+]1Cc1ccccc1 [JG-84], the “IC50 in combination versus Hsp70 inhibitor alone” value [10] was “decreased IC50 concentrations”.
For CCn1c(=O)/c(=C2\Sc3cccc(F)c3N2C)s/c1=C\c1scc[n+]1Cc1ccccc1 [JG-83], the “IC50 in combination versus Hsp70 inhibitor alone” value [10] was “decreased IC50 concentrations”.
For CCN1C(=O)/C(=C2\Sc3ccccc3N2C)SC1=S [YM-02, (E)-3-ethyl-5-(3-methylbenzo[d]thiazol-2(3H)-ylidene)-2-thioxothiazolidin-4-one], the IC50 [2, 13] was greater than 50 µM, the anti-cancer activity [11] was “residual activity” and the “activity in luciferase binding assay” value [4] was “reduced activity; also recorded: some residual activity”. The “anti-tau activity in cells” value [8] was “some residual activity”.
For CCN1C(=O)CS/C1=C\c1ccccn1 [YM-07, (Z)-3-ethyl-2-(pyridin-2-ylmethylene)thiazolidin-4-one], the IC50 [2, 13] was roughly 5.8 µM, the “affinity fold worse than YM-08” value ([2]; ratio of ELISA IC50) was “about 10 fold” and the anti-cancer activity [11] was “residual activity”. The “activity in luciferase binding assay” value [4] was “reduced activity”.

Reference: patent US9808448B2, “Pharmaceutical compounds and use of same in cancer and tauopathies” (THE REGENTS OF THE UNIVERSITY OF MICHIGAN, priority 2013, dated 2017)
